In patent US20070117743A1, “New antitumoral compounds” (priority 2003, published 2007):
Where a SMILES comes first, the peptide text is derived from it. Bridges are numbered along the chain shown (N, C = ends). [ ]: non-standard residue; d: D form. The star is where a group is joined. d(aIle) = CC[C@H](C)[C@@H](N)C(=O)O; d(aThr) = C[C@@H](O)[C@@H](N)C(=O)O; Hexanoyl(5-Me) = CC(C)CCCC(=O)*; Orn = NCCC[C@H](N)C(=O)O; Dhb = C/C=C(\N)C(=O)O

How the values were obtained:
Format in all cases: cell-based, human
IGROV-1 = assay: SRB colorimetric assay of cell growth and viability, IGROV-1; conditions: IGROV; 48 hours exposure
HeLa = assay: SRB colorimetric assay of cell growth and viability, HeLa; conditions: HELA, 48 hours exposure; for CC50: read-out: LC50 HELA
HeLa-APL = assay: SRB colorimetric assay of cell growth and viability, HeLa-APL; conditions: HELA-APL, 48 hours exposure; for CC50: read-out: LC50 HELA-APL
DU-145 = assay: SRB colorimetric assay of cell growth and viability, DU-145; conditions: DU-145; 48 hours exposure
LNCaP = assay: SRB colorimetric assay of cell growth and viability, LNCaP; conditions: LN-caP, 48 hours exposure; for CC50: read-out: LC50 LN-caP
PANC-1 = assay: SRB colorimetric assay of cell growth and viability, PANC-1; conditions: PANC-1, 48 hours exposure; for CC50: read-out: LC50 PANC-1
K-562 = assay: SRB colorimetric assay of cell growth and viability, K-562; conditions: K-562, 48 hours exposure; for CC50: read-out: LC50 K-562
SK-BR-3 = assay: SRB colorimetric assay of cell growth and viability, SK-BR-3; conditions: SK-BR-3; 48 hours exposure
A-549 = assay: SRB colorimetric assay of cell growth and viability, A-549; conditions: A-549, 48 hours exposure; for GI50: read-out: GI50 A-549; for CC50: read-out: LC50 A-549
IGROV-ET = assay: SRB colorimetric assay of cell growth and viability, IGROV-ET; conditions: IGROV-ET, 48 hours exposure; for CC50: read-out: LC50 IGROV-ET
HT-29 = assay: SRB colorimetric assay of cell growth and viability, HT-29; conditions: HT-29, 48 hours exposure; for GI50: read-out: GI50 HT-29; for CC50: read-out: LC50 HT-29
LoVo-Dox = assay: SRB colorimetric assay of cell growth and viability, LoVo-Dox; conditions: LOVO-DOX, 48 hours exposure; for CC50: read-out: LC50 LOVO-DOX
Procedure, shortened: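 Absorbance at 490 nm of Tris-solubilized sulforhodamine B gives the read-out after cells are fixed with cold 50% TCA for 60 min at 4° C. Compound exposure lasts 48 hours over 10 to 10^−8 μg/mL. Growth inhibition, total growth inhibition and lethal concentration are calculated from triplicate wells.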

SK-MEL-28 = assay: SRB colorimetric assay of cell growth and viability, SK-MEL-28; conditions: MEL-28, 48 hours exposure; for CC50: read-out: LC50 MEL-28

## C/C=C1\NC(=O)[C@H](Cc2ccccc2)NC(=O)[C@@H](C(C)C)NC(=O)[C@@H]([C@@H](C)CC)NC(=O)[C@H](NC(=O)[C@H](NC(=O)[C@H](CCCN)NC(=O)[C@H]2CCCN2C(=O)[C@H](NC(=O)[C@@H](NC(=O)[C@H](CCC(=O)O)NC(=O)[C@H](NC(=O)CCCC(C)C)C(C)C)C(C)C)C(C)C)[C@@H](C)CC)[C@@H](C)OC(=O)[C@H](C(C)C)NC1=O [Compound 115, [Glu^12]-KF] ({Hexanoyl(5-Me)}-[dV]EV[dV][dP][Orn][d(aIle)][d(aThr)][d(aIle)][dV]F[Dhb]V; ester 8-C)
IGROV-1
  GI50: 1.54 µM
  LC50 (concentration causing 50% net cell killing): 6.64 µM
  TGI IGROV: 3.59E−06 Molar
HeLa
  GI50: 6.64 µM
  TGI HELA: 6.64E−06 Molar
  CC50: 6.64 µM
HeLa-APL
  GI50: 2.99 µM
  TGI HELA-APL: 6.64E−06 Molar
  CC50: 6.64 µM
DU-145
  GI50: 3.25 µM
  LC50 (concentration causing 50% net cell kill): 6.64 µM
  TGI DU-145: 6.64E−06 Molar
LNCaP
  GI50: 1.28 µM
  TGI LN-caP: 2.54E−06 Molar
  CC50: 5.01 µM
PANC-1
  GI50: 6.64 µM
  TGI PANC-1: 6.64E−06 Molar
  CC50: 6.64 µM
K-562
  GI50: 6.64 µM
  TGI K-562: 6.64E−06 Molar
  CC50: 6.64 µM
SK-BR-3
  GI50: 1.35 µM
  LC50: 6.64 µM
  TGI SK-BR-3: 3.01E−06 Molar
A-549
  TGI A-549: 6.64E−06 Molar
  GI50: 4.1 µM
  CC50: 6.64 µM
IGROV-ET
  GI50: 1.67 µM
  TGI IGROV-ET: 3.12E−06 Molar
  CC50: 5.83 µM
HT-29
  TGI HT-29: 2.60E−06 Molar
  GI50: 1.33 µM
  CC50: 5.09 µM
LoVo-Dox
  GI50: 1.52 µM
  TGI LOVO-DOX: 3.00E−06 Molar
  CC50: 5.92 µM
SK-MEL-28
  GI50: 6.5 µM
  TGI MEL-28: 6.64E−06 Molar
  CC50: 6.64 µM

## C/C=C1\NC(=O)[C@H](Cc2ccccc2)NC(=O)[C@@H](C(C)C)NC(=O)[C@@H]([C@@H](C)CC)NC(=O)[C@H](NC(=O)[C@H](NC(=O)[C@H](CCCN)NC(=O)[C@H]2CCCN2C(=O)[C@H](NC(=O)[C@@H](NC(=O)[C@H](CCCN)NC(=O)[C@H](NC(=O)CCCC(C)C)C(C)C)C(C)C)C(C)C)[C@@H](C)CC)[C@@H](C)OC(=O)[C@H](C(C)C)NC1=O [Compound 116, [Orn^12]-KF] ({Hexanoyl(5-Me)}-[dV][Orn]V[dV][dP][Orn][d(aIle)][d(aThr)][d(aIle)][dV]F[Dhb]V; ester 8-C)
IGROV-1
  GI50: 2.05 µM
  LC50 (concentration causing 50% net cell killing): 6.71 µM
  TGI IGROV: 3.86E−06 Molar
HeLa
  GI50: 1.54 µM
  TGI HELA: 3.35E−06 Molar
  CC50: 6.71 µM
HeLa-APL
  GI50: 3 µM
  TGI HELA-APL: 6.71E−06 Molar
  CC50: 6.71 µM
DU-145
  GI50: 3.32 µM
  LC50 (concentration causing 50% net cell kill): 6.71 µM
  TGI DU-145: 6.71E−06 Molar
LNCaP
  GI50: 1.54 µM
  TGI LN-caP: 3.10E−06 Molar
  CC50: 6.24 µM
PANC-1
  GI50: 6.08 µM
  TGI PANC-1: 6.71E−06 Molar
  CC50: 6.71 µM
K-562
  GI50: 0.919 µM
  TGI K-562: 2.34E−06 Molar
  CC50: 5.94 µM
SK-BR-3
  GI50: 1.45 µM
  LC50: 5.51 µM
  TGI SK-BR-3: 2.82E−06 Molar
A-549
  TGI A-549: 6.71E−06 Molar
  GI50: 6.71 µM
  CC50: 6.71 µM
IGROV-ET
  GI50: 1.87 µM
  TGI IGROV-ET: 3.23E−06 Molar
  CC50: 5.55 µM
HT-29
  TGI HT-29: 3.88E−06 Molar
  GI50: 2.24 µM
  CC50: 6.71 µM
LoVo-Dox
  GI50: 1.94 µM
  TGI LOVO-DOX: 3.71E−06 Molar
  CC50: 6.71 µM
SK-MEL-28
  GI50: 4.32 µM
  TGI MEL-28: 6.71E−06 Molar
  CC50: 6.71 µM

## C/C=C1\NC(=O)[C@H](Cc2ccccc2)NC(=O)[C@@H](C(C)C)NC(=O)[C@@H]([C@@H](C)CC)NC(=O)[C@H](NC(=O)[C@H](NC(=O)[C@H](CCCN)NC(=O)[C@H]2CCCN2C(=O)[C@H](NC(=O)[C@@H](NC(=O)[C@@H]2CCCN2C(=O)[C@H](NC(=O)CCCC(C)C)C(C)C)C(C)C)C(C)C)[C@@H](C)CC)[C@@H](C)OC(=O)[C@H](C(C)C)NC1=O [Compound 117, [Pro^12]-KF] ({Hexanoyl(5-Me)}-[dV]PV[dV][dP][Orn][d(aIle)][d(aThr)][d(aIle)][dV]F[Dhb]V; ester 8-C)
IGROV-1
  GI50: 1.97 µM
  LC50 (concentration causing 50% net cell killing): 6.78 µM
  TGI IGROV: 3.70E−06 Molar
HeLa
  GI50: 1.53 µM
  TGI HELA: 2.89E−06 Molar
  CC50: 5.46 µM
HeLa-APL
  GI50: 1.84 µM
  TGI HELA-APL: 3.98E−06 Molar
  CC50: 6.78 µM
DU-145
  GI50: 2.41 µM
  LC50 (concentration causing 50% net cell kill): 6.78 µM
  TGI DU-145: 5.43E−06 Molar
LNCaP
  GI50: 1.51 µM
  TGI LN-caP: 2.87E−06 Molar
  CC50: 5.45 µM
PANC-1
  GI50: 3.88 µM
  TGI PANC-1: 6.78E−06 Molar
  CC50: 6.78 µM
K-562
  GI50: 0.841 µM
  TGI K-562: 2.10E−06 Molar
  CC50: 5.22 µM
SK-BR-3
  GI50: 1.55 µM
  LC50: 5.62 µM
  TGI SK-BR-3: 2.96E−06 Molar
A-549
  TGI A-549: 6.78E−06 Molar
  GI50: 3.29 µM
  CC50: 6.78 µM
IGROV-ET
  GI50: 1.82 µM
  TGI IGROV-ET: 3.11E−06 Molar
  CC50: 5.34 µM
HT-29
  TGI HT-29: 3.38E−06 Molar
  GI50: 0.0176 µM
  CC50: ≥ 6.49 µM
LoVo-Dox
  GI50: 1.83 µM
  TGI LOVO-DOX: 3.59E−06 Molar
  CC50: 6.78 µM
SK-MEL-28
  GI50: 2 µM
  TGI MEL-28: 4.26E−06 Molar
  CC50: 6.78 µM

## C/C=C1\NC(=O)[C@H](Cc2ccccc2)NC(=O)[C@@H](C(C)C)NC(=O)[C@@H]([C@@H](C)CC)NC(=O)[C@H](NC(=O)[C@H](NC(=O)[C@H](CCCN)NC(=O)[C@H]2CCCN2C(=O)[C@H](NC(=O)[C@@H](NC(=O)[C@@H](NC(=O)[C@@H](CCCN)NC(=O)CCCC(C)C)[C@@H](C)O)C(C)C)C(C)C)[C@@H](C)CC)[C@@H](C)OC(=O)[C@H](C(C)C)NC1=O [Compound 118, [D-Orn^13]-KF]
IGROV-1
  GI50: 1.45 µM
  LC50 (concentration causing 50% net cell killing): 5.24 µM
  TGI IGROV: 2.76E−06 Molar
HeLa
  GI50: 1.57 µM
  TGI HELA: 3.30E−06 Molar
  CC50: 6.7 µM
HeLa-APL
  GI50: 1.86 µM
  TGI HELA-APL: 4.15E−06 Molar
  CC50: 6.7 µM
DU-145
  GI50: 1.86 µM
  LC50 (concentration causing 50% net cell kill): 6.7 µM
  TGI DU-145: 3.84E−06 Molar
LNCaP
  GI50: 2.87 µM
  TGI LN-caP: 6.70E−06 Molar
  CC50: 6.7 µM
PANC-1
  GI50: 2.09 µM
  TGI PANC-1: 4.74E−06 Molar
  CC50: 6.7 µM
K-562
  GI50: 1.6 µM
  TGI K-562: 3.92E−06 Molar
  CC50: 6.7 µM
SK-BR-3
  GI50: 0.851 µM
  LC50: 4.42 µM
  TGI SK-BR-3: 1.94E−06 Molar
A-549
  TGI A-549: 4.21E−06 Molar
  GI50: 1.96 µM
  CC50: 6.7 µM
IGROV-ET
  GI50: 1.85 µM
  TGI IGROV-ET: 3.74E−06 Molar
  CC50: 6.7 µM
HT-29
  TGI HT-29: 2.84E−06 Molar
  GI50: 1.2 µM
  CC50: 6.7 µM
LoVo-Dox
  GI50: 1.59 µM
  TGI LOVO-DOX: 3.28E−06 Molar
  CC50: 6.7 µM
SK-MEL-28
  GI50: 1.49 µM
  TGI MEL-28: 2.88E−06 Molar
  CC50: 5.55 µM
